Reference: BindingDB's records for doi:10.1016/j.bmcl.2005.11.059 (University of Kansas, 2006)

Target: Toll-like receptor 4 (Homo sapiens, UniProt O00206)
Experiment: Inhibition of induction of NF-kappaB by LPS in HEK293 cells co-transfected with TLR4, CD14 and MD2

Toll-like receptor 4, sequence (O00206 whole entry): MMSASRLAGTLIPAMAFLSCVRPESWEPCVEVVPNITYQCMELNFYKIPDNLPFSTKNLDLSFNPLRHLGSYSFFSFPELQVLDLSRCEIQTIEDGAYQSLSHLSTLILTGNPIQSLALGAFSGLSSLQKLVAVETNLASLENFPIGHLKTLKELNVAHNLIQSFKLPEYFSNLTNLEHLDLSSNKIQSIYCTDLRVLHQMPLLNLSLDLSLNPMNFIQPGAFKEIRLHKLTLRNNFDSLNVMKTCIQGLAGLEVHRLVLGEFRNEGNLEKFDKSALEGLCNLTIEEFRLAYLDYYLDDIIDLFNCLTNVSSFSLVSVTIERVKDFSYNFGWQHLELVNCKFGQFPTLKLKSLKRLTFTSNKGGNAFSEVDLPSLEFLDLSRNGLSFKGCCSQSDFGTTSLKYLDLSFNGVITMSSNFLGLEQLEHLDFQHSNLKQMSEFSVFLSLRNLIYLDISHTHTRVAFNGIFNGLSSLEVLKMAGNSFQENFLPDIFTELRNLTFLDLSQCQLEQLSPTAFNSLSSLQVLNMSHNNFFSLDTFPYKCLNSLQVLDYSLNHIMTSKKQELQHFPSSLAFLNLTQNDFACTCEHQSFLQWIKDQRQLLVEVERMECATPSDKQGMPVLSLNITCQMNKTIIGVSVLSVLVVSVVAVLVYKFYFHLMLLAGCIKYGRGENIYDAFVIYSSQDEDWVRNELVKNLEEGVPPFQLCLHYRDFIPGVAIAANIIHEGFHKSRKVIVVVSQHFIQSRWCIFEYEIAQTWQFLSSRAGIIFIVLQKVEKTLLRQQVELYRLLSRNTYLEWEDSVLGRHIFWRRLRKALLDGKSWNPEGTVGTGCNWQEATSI

Compound | IC50
CCOc1c(C=NN=C(N)N)ccc(C=NN=C(N)N)c1OCC | 35.6 µM
CCCCCCCCOc1c(C=NN=C(N)N)ccc(C=NN=C(N)N)c1OCCCCCCCC | 4.5 µM
COc1c(C=NN=C(N)N)ccc(C=NN=C(N)N)c1OC | 175 µM
CCCCOc1c(C=NN=C(N)N)ccc(C=NN=C(N)N)c1OCCCC | 9.4 µM
NC(N)=NN=Cc1ccc(C=NN=C(N)N)cc1 | 164 µM
CCCOc1c(C=NN=C(N)N)ccc(C=NN=C(N)N)c1OCCC | 27.6 µM
C=CCOc1c(C=NN=C(N)N)ccc(C=NN=C(N)N)c1OCC=C | 61.4 µM
CCCCCOc1c(C=NN=C(N)N)ccc(C=NN=C(N)N)c1OCCCCC | 10.5 µM
NC(N)=NN=Cc1ccc(C=NN=C(N)N)c(O)c1O | 59.1 µM
CCCCCCOc1c(C=NN=C(N)N)ccc(C=NN=C(N)N)c1OCCCCCC | 6.11 µM
CCCCCCCCCCCCCCOc1c(C=NN=C(N)N)ccc(C=NN=C(N)N)c1OCCCCCCCCCCCCCC | 190 µM
